In patent publication US20250163064A1, “QUINAZOLINE COMPOUNDS AND USES THEREOF AS INHIBITORS OF MUTANT KRAS PROTEINS” (AMGEN INC., priority 2022, published 2025):

Key:
[1] = system: Phosphorylation of ERK1/2 in AsPC-1 cells; test: Phospho-ERK1/2 MSD Assay; format: cell-based; settings: Homo sapiens, ASPC1, 2 h, read-out: 2 h p-ERK (AsPC-1 cells), IC50 (μM), AsPC-1 cells, 2 h compound treatment
Protocol: AsPC-1 (ATCC® CRL-1682TM) cells were cultured in RPMI 1640 Medium (ThermoFisher Scientific 11875093) containing 10% fetal bovine serum (ThermoFisher Scientific 16000044) and 1× penicillin-streptomycin-glutamine (ThermoFisher Scientific 10378016). Sixteen hours prior to compound treatment, AsPC-1 cells were seeded in 96-well cell culture plates at a density of 25,000 cells/well and incubated at 37° C., 5% CO2. A compound dose-response titration was diluted in growth media, added to appropriate wells of a cell culture plate, and then incubated at 37° C., 5% CO2 for 2 hours. Following compound treatment, cells were washed with ice-cold Dulbecco's phosphate-buffered saline, no Ca^2+ or Mg^2+ (ThermoFisher Scientific 14190144), and then lysed in RIPA buffer (50 mM Tris-HCl pH 7.5, 1% Igepal, 0.5% sodium deoxycholate, 150 mM NaCl, and 0.5% sodium dodecyl sulfate) containing protease inhibitors (Roche 4693132001) and phosphatase inhibitors (Roche 4906837001). Phosphorylation of ERK1/2 in compound-treated lysates was assayed using Phospho-ERK1/2 Whole Cell Lysate kits (Meso Scale Discovery K151DWD) according to the manufacturer's protocol. Assay plates were read on a Meso Scale Discovery Sector Imager 6000, and data were analyzed using a 4-parameter logistic model to calculate IC50 values.

[2] = biological target: His-tagged KRAS G12D protein (Homo sapiens (Human), UniProt P01116, G12D); test: KRAS G12D TR-FRET Assay; format: binding; settings: biotinylated KRPep-2d, 10 μM GDP
Chain of His-tagged KRAS G12D protein (P01116-2 other isoform, or with tags, fused parts or gaps G12D): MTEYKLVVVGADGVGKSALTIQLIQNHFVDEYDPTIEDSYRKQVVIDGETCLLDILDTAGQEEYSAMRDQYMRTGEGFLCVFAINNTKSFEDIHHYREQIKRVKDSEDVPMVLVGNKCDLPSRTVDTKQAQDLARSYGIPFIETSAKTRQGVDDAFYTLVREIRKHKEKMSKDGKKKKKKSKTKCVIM
Protocol: Compounds of interest were prepared in a dose-response titration in DMSO, and 80 nL were added via Labcyte Echo to each well of a 384-well plate (Perkin Elmer 6008280). The His-tagged KRAS G12D protein (Amgen) was diluted to 20 nM in Assay Buffer (20 mM HEPES, pH 7.4, 10 mM MgCl2, 50 mM NaCl, 0.1% BSA, 0.01% Tween-20, 10 μM GDP) and 2 μL was added to the appropriate wells of the 384-well plate. The plate was incubated for 30 minutes at rt. Biotinylated KRPep-2d substrate (Amgen) was diluted to […] in Assay Buffer and 2 AL was added to all wells and incubated for 1 hour at room temperature. Detection Reagent (0.4 nM LANCE Eu-W1024 Anti-6×His (Perkin Elmer AD0401), 5 nM streptavidin-d2 (Cisbio 610SADLA)) was prepared in Assay Buffer, then 4 AL was added to the plate and incubated for 1 h at rt. Plates were read using PerkinElmer En Vision (ex: 320 nm, em1: 665 nm, em2: 615 nm) and em1/em2 data was used to generate curve fits using a 4-parameter logistic model to calculate IC50 values.

[3] = biological target: GDP-bound KRAS protein (aa 1-169), G12D and C118A; SOS-mediated nucleotide exchange (Homo sapiens (Human), UniProt P01116, C118A/G12D); test: KRAS G12D Coupled Nucleotide Exchange Assay; format: biochemical; settings: 2 h compound pre-incubation, GTP, cRAF AlphaScreen
Chain of GDP-bound KRAS protein (aa 1-169), G12D and C118A; SOS-mediated nucleotide exchange (P01116 other isoform, or with tags, fused parts or gaps G12D/C118A): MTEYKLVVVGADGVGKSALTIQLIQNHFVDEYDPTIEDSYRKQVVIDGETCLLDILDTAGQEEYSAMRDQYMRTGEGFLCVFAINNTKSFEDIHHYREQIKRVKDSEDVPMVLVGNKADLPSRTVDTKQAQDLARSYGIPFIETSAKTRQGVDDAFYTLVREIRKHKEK
Protocol: Purified GDP-bound KRAS protein (aa 1-169), containing both G12D and C118A amino acid substitutions and an N-terminal His-tag, was pre-incubated in assay buffer (25 mM HEPES pH 7.4, 10 mM MgCl2, and 0.01% Triton X-100) with a compound dose-response titration for 2 h. Following compound pre-incubation, purified SOS protein (aa 564-1049) and GTP (Roche 10106399001) were added to the assay wells and incubated for an additional 30 min. […] The assay plates were then read on a PerkinElmer En Vision Multilabel Reader, using AlphaScreen® technology, and data were analyzed using a 4-parameter logistic model to calculate IC50 values.

| Structure (SMILES) | IC50 [1] [µM] | IC50 [2] [nM] | IC50 [3] [nM] |
| --- | --- | --- | --- |
| N#Cc1c(N)sc2c(F)ccc(-c3c(Cl)cc4c(N5CC6CC(O)C(C6)C5)nc(OC[C@@]56CCCN5C[C@H](F)C6)nc4c3F)c12 (mixture of isomers) [Example 7, 2-Amino-4-(6-chloro-8-fluoro-2-(((2R,7aS)-2-fluorotetrahydro-1H-pyrrolizin-7a(5H)-yl)methoxy)-4-(rac-(1R,5R,6R)-6-hydroxy-3-azabicyclo[3.2.1]octan-3-yl)quinazolin-7-yl)-7-fluorobenzo[6] thiophene-3-carbonitrile] | 0.264 |  |  |
| N#Cc1c(N)sc2c(F)ccc(-c3c(Cl)cc4c(N5CCCOCCC5)nc(OC[C@@]56CCCN5C[C@H](F)C6)nc4c3F)c12 (single isomer, unassigned) [Example 18] | 0.013 | 2 | 2 |
| N#Cc1c(N)sc2c(F)ccc(-c3c(Cl)cc4c(N5CCCOCCC5)nc(OC[C@@]56CCCN5C[C@H](F)C6)nc4c3F)c12 (single isomer, unassigned) [Example 19] |  | 164 | 94 |
| CC1(O)COCCN(c2nc(OC[C@@]34CCCN3C[C@H](F)C4)nc3c(F)c(-c4ccc(F)c5sc(N)c(C#N)c45)c(Cl)cc23)C1 (single isomer, unassigned) [Example 23] |  | 44 | 42 |
| CC(C)(O)COc1nc(N2CCOC[C@@](C)(O)C2)c2cc(Cl)c(-c3ccc(F)c4sc(N)c(C#N)c34)c(F)c2n1 (single isomer, unassigned) [Example 67] |  | 61 | 34 |
| N#Cc1c(N)sc2c(F)ccc(-c3c(Cl)cc4c(N5CCCCCC5)nc(OC[C@@]56CCCN5C[C@H](F)C6)nc4c3F)c12 [Example 1, 2-Amino-4-(4-(azepan-1-yl)-6-chloro-8-fluoro-2-(((2R,7aS)-2-fluorotetrahydro-1H-pyrrolizin-7a(5H)-yl)methoxy)quinazolin-7-yl)-7-fluorobenzo[b]thiophene-3-carbonitrile] | 0.052 |  |  |
| N#Cc1c(N)sc2c(F)ccc(-c3c(Cl)cc4c(N5CCCC6(CCOC6)C5)nc(OC[C@@]56CCCN5C[C@H](F)C6)nc4c3F)c12 (stereo partly drawn) [Example 2, 2-Amino-4-(6-chloro-8-fluoro-2-(((2R,7aS)-2-fluorotetrahydro-1H-pyrolizin-7a(5H)-yl)methoxy)-4-(2-oxa-7-azaspiro[4.5]decan-7-yl)quinazolin-7-yl)-7-fluorobenzo[b] thiophene-3-carbonitrile] |  | 34 | 46 |
| N#Cc1c(N)sc2c(F)ccc(-c3c(Cl)cc4c(N5CCCC(C#N)CC5)nc(OC[C@@]56CCCN5C[C@H](F)C6)nc4c3F)c12 (stereo partly drawn) [Example 3, 1-(7-(2-Amino-3-cyano-7-fluorobenzo[b]thiophen-4-yl)-6-chloro-8-fluoro-2-(((2R,7a.S)-2-fluorotetrahydro-1H-pyrrolizin-7a(5H)-yl)methoxy)quina-zolin-4-yl)azepane-4-carbonitrile] | 0.105 |  |  |
| N#Cc1c(N)sc2c(F)ccc(-c3c(Cl)cc4c(N5CCCC[C@@H](O)C5)nc(OC[C@@]56CCCN5C[C@H](F)C6)nc4c3F)c12 [Example 4, 2-Amino-4-(6-chloro-8-fluoro-2-(((2R,7aS)-2-fluorotetrahydro-1H-pyrrolizin-7a(5H)-yl)methoxy)-4-((R)-3-hydroxyazepan-1-yl)quinazolin-7-yl)-7-fluorobenzo[b] thiophene-3-carbonitrile] | 0.041 |  |  |
| N#Cc1c(N)sc2c(F)ccc(-c3c(Cl)cc4c(N5CCOCC(=O)C5)nc(OC[C@@]56CCCN5C[C@H](F)C6)nc4c3F)c12 [Example 6, 2-Amino-4-(6-chloro-8-fluoro-2-(((2R,7aS)-2-fluorotetrahydro-1H-pyrrolizin-7a(5H)-yl)methoxy)-4-(6-oxo-1,4-oxazepan-4-yl)quinazolin-7-yl)-7-fluorobenzo[b] thiophene-3-carbonitrile] | 0.143 |  |  |
| N#Cc1c(N)sc2c(F)ccc(-c3c(Cl)cc4c(N5CCCCC(=O)C5)nc(OC[C@@]56CCCN5C[C@H](F)C6)nc4c3F)c12 [Example 8, 2-Amino-4-(6-chloro-8-fluoro-2-(((2R,7aS)-2-fluorotetrahydro-1H-pyrrolizin-7a(5H)-yl)methoxy)-4-(3-oxoazepan-1-yl)quinazolin-7-yl)-7-fluorobenzo[b] thiophene-3-carbonitrile] | 0.015 |  |  |
| N#Cc1c(N)sc2c(F)ccc(-c3c(Cl)cc4c(N5CCC6(CCCS6(=O)=O)C5)nc(OC[C@@]56CCCN5C[C@H](F)C6)nc4c3F)c12 (stereo partly drawn) [Example 9, 2-Amino-4-(6-chloro-4-(1,1-dioxido-1-thia-7-azaspiro[4.4]nonan-7-yl)-8-fluoro-2-(((2R,7aS)-2-fluorotetrahydro-1H-pyrrolizin-7a(5H)-yl)methoxy)quinazolin-7-yl)-7-fluorobenzo[b] thiophene-3-carbonitrile] |  | 60 | 41 |
| N#Cc1c(N)sc2c(F)ccc(-c3c(Cl)cc4c(N5CCCC6(CCS6(=O)=O)C5)nc(OC[C@@]56CCCN5C[C@H](F)C6)nc4c3F)c12 (stereo partly drawn) [Example 10, 2-Amino-4-(6-chloro-4-(1,1-dioxido-1-thia-6-azaspiro[3.5]nonan-6-yl)-8-fluoro-2-(((2R,7aS)-2-fluorotetrahydro-1H-pyrrolizin-7a(5H)-yl)methoxy)quinazolin-7-yl)-7-fluorobenzo[b] thiophone-3-carbonitrile] |  | 44 | 36 |
| N#Cc1c(N)sc2c(F)ccc(-c3c(Cl)cc4c(N5CCCC6(CNC(=O)O6)C5)nc(OC[C@@]56CCCN5C[C@H](F)C6)nc4c3F)c12 (stereo partly drawn) [Example 17, 2-Amino-4-(6-chloro-8-fluoro-2-(((2R,7aS)-2-fluorotetrahydro-1H-pyrrolizin-7a(5H)-yl)methoxy)-4-(2-oxo-1-oxa-3,7-diazaspiro[4.5]decan-7-yl)quinazolin-7-yl)-7-fluorobenzo[b] thiophene-3-carbonitrile] | 0.768 |  |  |
| N#Cc1c(N)sc2c(F)ccc(-c3c(Cl)cc4c(N5CCC=CC(O)C5)nc(OC[C@@]56CCCN5C[C@H](F)C6)nc4c3F)c12 (stereo partly drawn) [Example 29, 2-Amino-4-(6-chloro-8-fluoro-2-(((2R,7aS)-2-fluorotetrahydro-1H-pyrrolizin-7a(5H)-yl)methoxy)-4-(3-hydroxy-2,3,6,7-tetrahydro-1H-azepin-1-yl)quinazolin-7-yl)-7-fluorobenzo[b] thiophene-3-carbonitrile] | 0.081 |  |  |
| C[C@@]1(O)CCCN(c2nc(OC[C@@]34CCCN3C[C@H](F)C4)nc3c(F)c(-c4ccc(F)c5sc(N)c(C#N)c45)ncc23)C1 [Example 56, 2-Amino-7-fluoro-4-(8-fluoro-2-(((2R,7aS)-2-fluorotetrahydro-1H-pyrrolizin-7a(5H)-yl)methoxy)-4-((R)-3-hydroxy-3-methylpiperidin-1-yl)pyrido[4,3-d]pyrimidin-7-yl)benzo[b] thiophene-3-carbonitrile] |  | 17 | 30 |
| N#Cc1c(N)sc2c(F)ccc(-c3c(Cl)cc4c(N5CCCC[C@@H](C#N)C5)nc(OC[C@@]56CCCN5C[C@H](F)C6)nc4c3F)c12 [Example 68, (3R)-1-(7-(2-amino-3-cyano-7-fluorobenzo[b]thiophen-4-yl)-6-chloro-8-fluoro-2-(((2R,7aS)-2-fluorotetrahydro-1H-pyrrolizin-7a(5H)-yl)methoxy)quinazolin-4-yl)azepane-3-carbonitrile] |  | 144 | 91 |
| N#Cc1c(N)sc2c(F)ccc(-c3c(Cl)cc4c(N5CCCC[C@H](C#N)C5)nc(OC[C@@]56CCCN5C[C@H](F)C6)nc4c3F)c12 [Example 69, (3S)-1-(7-(2-amino-3-cyano-7-fluorobenzo[b]thiophen-4-yl)-6-chloro-8-fluoro-2-(((2R,7aS)-2-fluorotetrahydro-1H-pyrrolizin-7a(5H)-yl)methoxy)quinazolin-4-yl)azepane-3-carbonitrile] |  | 139 | 71 |
